Experimental data: ChEMBL document CHEMBL3885881, “DrugMatrix”

Species on record: Rattus norvegicus
Experiment: DrugMatrix - Regimen: Daily Repeat
Format: toxicity, organism-based, Sprague-Dawley
Design: regimen Daily Repeat, gender Male, age 6-8 weeks
Details: in vivo, po, route oral GAVAGE, vehicle 100 % WATER; for ABSOLUTE BASOPHIL / ABSOLUTE EOSINOPHIL / ABSOLUTE LYMPHOCYTE / ABSOLUTE MONOCYTE / ABSOLUTE SEGMENTED NEUTROPHIL / BASOPHIL / EOSINOPHIL / ERYTHROCYTE COUNT / HEMATOCRIT / HEMOGLOBIN / LEUKOCYTE COUNT / LYMPHOCYTE / MEAN CORPUSCULAR HEMOGLOBIN / MEAN CORPUSCULAR HEMOGLOBIN CONCENTRATION / MEAN CORPUSCULAR VOLUME / MONOCYTE / NEUTROPHIL / NUCLEATED RED BLOOD CELLS / PLATELET COUNT: tissue Blood; for ALANINE AMINOTRANSFERASE / ALBUMIN / ALKALINE PHOSPHATASE / ASPARTATE AMINOTRANSFERASE / BLOOD UREA NITROGEN / CARBON DIOXIDE / CHLORIDE / CHOLESTEROL / CREATINE PHOSPHOKINASE / CREATININE / GLUCOSE / LACTATE DEHYDROGENASE / LIPASE / PHOSPHORUS / POTASSIUM / SODIUM / TOTAL BILIRUBIN / TOTAL PROTEIN / URIC ACID: tissue Plasma
[1] = 20 mg/kg, 120 h, dose level Low, time 5 day
[2] = 160 mg/kg, 72 h, dose level High, time 3 day
[3] = 160 mg/kg, 120 h, dose level High, time 5 day

SMILES: CN(C)CCC=C1c2ccccc2CCc2ccccc21 [AMITRIPTYLINE]
- ABSOLUTE BASOPHIL [1]: 0 CELLS/uL
- ABSOLUTE EOSINOPHIL [1]: 0 CELLS/uL
- ABSOLUTE LYMPHOCYTE [1]: 11980.67 CELLS/uL
- ABSOLUTE MONOCYTE [1]: 40.67 CELLS/uL
- ABSOLUTE SEGMENTED NEUTROPHIL [1]: 1045.33 CELLS/uL
- BASOPHIL [1]: 0%
- EOSINOPHIL [1]: 0%
- ERYTHROCYTE COUNT [1]: 5.76 x10E6/uL
- HEMATOCRIT [1]: 35.93%
- HEMOGLOBIN [1]: 14.33 G/DL
- LEUKOCYTE COUNT [1]: 13.07 x10E3/uL
- LYMPHOCYTE [1]: 91.33%
- MEAN CORPUSCULAR HEMOGLOBIN [1]: 24.93 pg
- MEAN CORPUSCULAR HEMOGLOBIN CONCENTRATION [1]: 39.9 G/DL
- MEAN CORPUSCULAR VOLUME [1]: 62.43 fL
- MONOCYTE [1]: 0.33%
- NEUTROPHIL [1]: 8.33%
- NUCLEATED RED BLOOD CELLS [1]: 0.33 /100WBC
- PLATELET COUNT [1]: 1316.67 x10E3/uL
- ALANINE AMINOTRANSFERASE [1]: 43.67 u/L
- ALBUMIN [1]: 4 G/DL
- ALKALINE PHOSPHATASE [1]: 394 u/L
- ASPARTATE AMINOTRANSFERASE [1]: 89.67 u/L
- BLOOD UREA NITROGEN [1]: 15.33 mg/dL
- CARBON DIOXIDE [1]: 30 mmol/L
- CHLORIDE [1]: 100.33 MEQ/L
- CHOLESTEROL [1]: 66.67 mg/dL
- CREATINE PHOSPHOKINASE [1]: 486 u/L
- CREATININE [1]: 0.18 mg/dL
- GLUCOSE [1]: 145.33 mg/dL
- LACTATE DEHYDROGENASE [1]: 605.67 u/L
- LIPASE [1]: 11 u/L
- PHOSPHORUS [1]: 12.43 mg/dL
- POTASSIUM [1]: 6.68 MEQ/L
- SODIUM [1]: 141.6 MEQ/L
- TOTAL BILIRUBIN [1]: 0.2 mg/dL
- TOTAL PROTEIN [1]: 5.97 G/DL
- URIC ACID [1]: 1.87 mg/dL
- ABSOLUTE BASOPHIL [2]: 0 CELLS/uL
- ABSOLUTE EOSINOPHIL [2]: 85.33 CELLS/uL
- ABSOLUTE LYMPHOCYTE [2]: 16571 CELLS/uL
- ABSOLUTE MONOCYTE [2]: 212.67 CELLS/uL
- ABSOLUTE SEGMENTED NEUTROPHIL [2]: 697.67 CELLS/uL
- BASOPHIL [2]: 0%
- EOSINOPHIL [2]: 0.67%
- ERYTHROCYTE COUNT [2]: 5.93 x10E6/uL
- HEMATOCRIT [2]: 38.63%
- HEMOGLOBIN [2]: 15.33 G/DL
- LEUKOCYTE COUNT [2]: 17.57 x10E3/uL
- LYMPHOCYTE [2]: 94%
- MEAN CORPUSCULAR HEMOGLOBIN [2]: 25.83 pg
- MEAN CORPUSCULAR HEMOGLOBIN CONCENTRATION [2]: 39.7 G/DL
- MEAN CORPUSCULAR VOLUME [2]: 65.13 fL
- MONOCYTE [2]: 1%
- NEUTROPHIL [2]: 4.33%
- NUCLEATED RED BLOOD CELLS [2]: 0 /100WBC
- PLATELET COUNT [2]: 1403.33 x10E3/uL
- ALANINE AMINOTRANSFERASE [2]: 60 u/L
- ALBUMIN [2]: 4.1 G/DL
- ALKALINE PHOSPHATASE [2]: 422 u/L
- ASPARTATE AMINOTRANSFERASE [2]: 80.33 u/L
- BLOOD UREA NITROGEN [2]: 14 mg/dL
- CARBON DIOXIDE [2]: 34 mmol/L
- CHLORIDE [2]: 102 MEQ/L
- CHOLESTEROL [2]: 83 mg/dL
- CREATINE PHOSPHOKINASE [2]: 464 u/L
- CREATININE [2]: 0.15 mg/dL
- GLUCOSE [2]: 151.67 mg/dL
- LACTATE DEHYDROGENASE [2]: 162.67 u/L
- LIPASE [2]: 10.33 u/L
- PHOSPHORUS [2]: 11.3 mg/dL
- POTASSIUM [2]: 5.61 MEQ/L
- SODIUM [2]: 145.53 MEQ/L
- TOTAL BILIRUBIN [2]: 0.13 mg/dL
- TOTAL PROTEIN [2]: 5.93 G/DL
- URIC ACID [2]: 1.57 mg/dL
- ABSOLUTE BASOPHIL [3]: 0 CELLS/uL
- ABSOLUTE EOSINOPHIL [3]: 42.33 CELLS/uL
- ABSOLUTE LYMPHOCYTE [3]: 10052.67 CELLS/uL
- ABSOLUTE MONOCYTE [3]: 70 CELLS/uL
- ABSOLUTE SEGMENTED NEUTROPHIL [3]: 435 CELLS/uL
- BASOPHIL [3]: 0%
- EOSINOPHIL [3]: 0.33%
- ERYTHROCYTE COUNT [3]: 5.82 x10E6/uL
- HEMATOCRIT [3]: 36.27%
- HEMOGLOBIN [3]: 14.2 G/DL
- LEUKOCYTE COUNT [3]: 10.6 x10E3/uL
- LYMPHOCYTE [3]: 94.67%
- MEAN CORPUSCULAR HEMOGLOBIN [3]: 24.37 pg
- MEAN CORPUSCULAR HEMOGLOBIN CONCENTRATION [3]: 39.17 G/DL
- MEAN CORPUSCULAR VOLUME [3]: 62.27 fL
- MONOCYTE [3]: 0.67%
- NEUTROPHIL [3]: 4.33%
- NUCLEATED RED BLOOD CELLS [3]: 0.33 /100WBC
- PLATELET COUNT [3]: 1249.67 x10E3/uL
- ALANINE AMINOTRANSFERASE [3]: 49.67 u/L
- ALBUMIN [3]: 4 G/DL
- ALKALINE PHOSPHATASE [3]: 363.67 u/L
- ASPARTATE AMINOTRANSFERASE [3]: 96.67 u/L
- BLOOD UREA NITROGEN [3]: 14.67 mg/dL
- CARBON DIOXIDE [3]: 30.33 mmol/L
- CHLORIDE [3]: 100.67 MEQ/L
- CHOLESTEROL [3]: 72.67 mg/dL
- CREATINE PHOSPHOKINASE [3]: 1225 u/L
- CREATININE [3]: 0.16 mg/dL
- GLUCOSE [3]: 188 mg/dL
- LACTATE DEHYDROGENASE [3]: 246.67 u/L
- LIPASE [3]: 10.33 u/L
- PHOSPHORUS [3]: 12.93 mg/dL
- POTASSIUM [3]: 5.4 MEQ/L
- SODIUM [3]: 143.4 MEQ/L
- TOTAL BILIRUBIN [3]: 0.17 mg/dL
- TOTAL PROTEIN [3]: 6.23 G/DL
- URIC ACID [3]: 1.83 mg/dL
